“Also recorded” adds a separate entry of the source.
Key:
CD4^+ T lymphocytes = assay: Proliferation of anti-CD3 activated CD4+ T lymphocytes; assay type: cell-based, BALB/c mouse
Description: Growth curves of lymph node T cells depleted of antigen-presenting cells (FIG. 17A) with and without 10^-6 M retinol at 2×10^5 and 5×10^4 cells/well. (FIG. 17B) Dose-responses elicited by different retinoids in cultures of lymph node T cells depleted of antigen-presenting cells. Also shown are the growth curves of CD4^+ (FIG. 17C) and CD8^+ T lymphocytes (FIG. 17D) in the presence of either retinol, 14HRR, human serum or in their absence.
T lymphocytes, purified as described, 5×10^4 /well, were activated with immobilized anti-CD3 antibody in ITLB medium. The indicated amounts of retinoids or human serum were added at initiation of cultures. […] 14HRR was added every 12 hours. DNA synthesis was measured by a 4 hour pulse with tritiated thymidine. SDs were ≤17%.
Mature T cells were obtained from pooled intestinal, axillary, inguinal and submandibular lymph nodes of 4 to 10-week-old BALB/c mice. To fractionate cells into CD4 and CD8 subsets and at the same time remove APC, a combination of adherence and complement lysis was used as follows:
The cell suspension in a volume of 2 ml was applied to a nylon wool column (40) (0.6 g of washed nylon fibers in the barrel of a 10 ml syringe) and incubated at 37° C. for 40 min. […] The success of the enrichment procedures was monitored cytofluorimetrically using FITC-conjugated anti-CD8 and PE-conjugated anti-CD4. […]

Chemical stability of P3 = assay type: physicochemical
[1] = system: immediate early genes in fibroblasts; assay: Expression of immediate early genes in fibroblasts; assay type: cell-based; details: work to be published elsewhere
[2] = Reversion of 14HRR to retinal; assay type: in vitro ADME
26 mammalian cells = assay: 3H retinol conversion to P3/14HRR in 26 mammalian cells; assay type: in vitro ADME; details: retinol bound to fetal calf serum
Description: The use of ^3 H retinol bound to fetal calf serum was used as an assay to test for P3 in other cell lines.
The use of ^3 H retinol bound to fetal calf serum was used as an assay to test for 14HRR in other cell lines.
(§1) Legend: 2.5×10^6 cells were grown overnight in 5 ml RPMI/10% FBS. The FBS was preincubated at room temperature with 14.4 uCi [^3 H] retinol (NEN) for 4h. The cell pellet was washed twice with PBS. The retinoid were extracted according to MClean et al. 90 and separated on an analytical c18 reverse phase column according to FIG. 7. The DPM were determined using an on-line scintillation counter.

thymocytes = assay: Viable and blast cell counts of thymocytes (trypan blue); assay type: cell-based, BALB/c mouse
Description: FIG. 14C: BALB/c thymocytes (3×10^6 /ml) were activated with anti-CD3e mAb as FIG. 1A. The total number of viable cells was determined by counting trypan blue-excluding cells, and those of blast cells by counting viable large cells in six replicate wells. Because of the relatively low cell density required in the culture (see FIG. 14A), the numbers reported for blast cells are best estimates.
Thymuses of 3 to 6-week-old BALB/c mice were teased in serum-free RPMI medium supplemented with 1% BSA, 10^-6 M linoleic acid and antibiotics. Depletion of accessory cells was achieved by two cycles of complement-dependent lysis with a mixture of anti-IA^d (5 μg/ml) and anti-IE^d (1:500 diluted ascites fluid). Briefly, cells were incubated on ice for 30 minutes with Ia antibodies, spun down, resuspended in 1:40 diluted rabbit complement, and incubated at 37° C. for 45 minutes. Incubations and two subsequent washes were carried out with RPMI medium containing 1% BSA. Cell viability was evaluated by trypan blue dye exclusion. To determine the extent of depletion of accessory cells, samples were stained with FITC-conjugated anti-Fc receptor antibody and analyzed by flow cytometry on a FACScan instrument (Becton Dickinson). No FcR-bearing cells were detected by this procedure.

EL-4 = assay: Retinol metabolism, EL-4; assay type: in vitro ADME, mouse
Description: as §1

SK3886 = assay: Retinol metabolism, SK3886; assay type: in vitro ADME
Description: as §1

5/2 = assay: Retinol metabolism, 5/2; assay type: in vitro ADME, human
Description: as §1

SKL3 = assay: Retinol metabolism, SKL3; assay type: in vitro ADME, human
Description: as §1

ERLD = assay: Retinol metabolism, ERLD; assay type: in vitro ADME
Description: as §1

Compound: CC(C=CC=C(C)C(O)CO)=CC=C1C(C)=CCCC1(C)C (stereo not shown) [14HRR, 14-hydroxy-4,14-retro-retinol]
- response of CD4+ subset to anti-CD3 (CD4^+ T lymphocytes): responded to the activating signal
- chemical stability (Chemical stability of P3): unstable in chloroform and does not survive an acid extraction step
- expression of immediate early genes [1]: facilitates the expression of immediate early genes in fibroblasts
- reversion to retinal [2]: does not revert to retinal

Compound: CC1=C(/C=C/C(C)=C/C=C/C(C)=C/CO)C(C)(C)CCC1 [retinol, all-trans retinol]
- formation of P3/14HRR from 3H retinol (26 mammalian cells): radioactivity peak at the position where 14HRR normally elutes; also recorded: radioactivity peak at the position where P3 normally elutes
- T cell activation / blast transformation by agent alone (thymocytes; alone): no discernible T cell activation
- viability of thymocyte cultures (thymocytes; retinol by itself): maintain a higher state of viability than anti-CD3e "only" stimulation
- Ester (% of taken up retinol) (EL-4): 44%
- P3 (% of taken up retinol) (EL-4): 5%
- Total cts. (EL-4): 2.8 × 10^5 cts.
- Ester (% of taken up retinol) (SK3886): 2%
- P3 (% of taken up retinol) (SK3886): 3%
- Total cts. (SK3886): 4.7 × 10^5 cts.
- Ester (% of taken up retinol) (5/2): 24%
- P3 (% of taken up retinol) (5/2): 4%
- Total cts. (5/2): 5.7 × 10^5 cts.
- Ester (% of taken up retinol) (SKL3): 24%
- P3 (% of taken up retinol) (SKL3): 2%
- Total cts. (SKL3): 1.6 × 10^5 cts.
- Ester (% of taken up retinol) (ERLD): 20%
- P3 (% of taken up retinol) (ERLD): 9%
- Total cts. (ERLD): 2.8 × 10^5 cts.
